In patent US9561231B2 (AbbVie Inc., priority 2012, dated 2017):

Experiments:
[1] = test system: BxPC3FP5; assay: Proliferation panel assay: BxPC3FP5; format: cell-based; settings: 120 h; BxPC3FP5 (Pancreas); 5 days, Cell Titer Glo; read-out: Cellular Proliferation EC50
[2] = test system: H1299; assay: Proliferation panel assay: H1299; format: cell-based; settings: Homo sapiens, NCI-H1299, 120 h; H1299 (NSCLC); 5 days, Cell Titer Glo; read-out: Cellular Proliferation EC50
[3] = test system: DLD-1; assay: Proliferation panel assay: DLD-1; format: cell-based; settings: Homo sapiens, 120 h; DLD-1 (Colon); 5 days, Cell Titer Glo; read-out: Cellular Proliferation EC50
[4] = test system: OPM2; assay: Proliferation panel assay: OPM2; format: cell-based; settings: Homo sapiens, OPM-2, 120 h; OPM2 (Multiple Myeloma); 5 days, Cell Titer Glo; read-out: Cellular Proliferation EC50
[5] = biological target: T1, second (BD2: amino acids E352-E168) bromodomain of BRD4 (Homo sapiens, UniProt O60885); assay: TR-FRET bromodomain binding assay, BRD4 BD2; settings: TR-FRET assay protocol (A-G, compound concentration range); Ki calculated from IC50, probe Kd and probe concentration; read-out: TR-FRET Binding Ki: BRD4 (BDII_E352-M457)
T1 construct: protocol
Outline: (§1)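 Values are Ki: IC50s from TR-FRET competition with an Alexa647-labeled BET-inhibitor probe were converted using probe Kd and probe concentration. Purified His-tagged bromodomain; pH 6.0 sodium phosphate buffer.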

[6] = test system: A-375; assay: Proliferation panel assay: A-375; format: cell-based; settings: Homo sapiens, 120 h; A-375 (Melanoma); 5 days, Cell Titer Glo; read-out: Cellular Proliferation EC50
[7] = test system: MDAMB231; assay: Proliferation panel assay: MDAMB231; format: cell-based; settings: Homo sapiens, MDA-MB-231, 120 h; MDAMB231 (Breast); 5 days, Cell Titer Glo; read-out: Cellular Proliferation EC50
[8] = test system: FaDu; assay: Proliferation panel assay: FaDu; format: cell-based; settings: Homo sapiens, 120 h; FaDu (Head & Neck); 5 days, Cell Titer Glo; read-out: Cellular Proliferation EC50
[9] = test system: RPMI-8226; assay: Proliferation panel assay: RPMI-8226; format: cell-based; settings: Homo sapiens, 120 h; RPMI-8226 (Multiple Myeloma); 5 days, Cell Titer Glo; read-out: Cellular Proliferation EC50
[10] = test system: NCI-H929; assay: Proliferation panel assay: NCI-H929; format: cell-based; settings: Homo sapiens, 120 h; NCI-H929 (Multiple Myeloma); 5 days, Cell Titer Glo; read-out: Cellular Proliferation EC50
[11] = test system: Ly18; assay: Proliferation panel assay: Ly18; format: cell-based; settings: 120 h; Ly18 (NHL); 5 days, Cell Titer Glo; read-out: Cellular Proliferation EC50
[12] = biological target: T2, first (BD1: amino acids K57-E168) bromodomain of BRD4 (Homo sapiens, UniProt O60885); assay: TR-FRET bromodomain binding assay, BRD4 BD1; settings: TR-FRET assay protocol (A-G, compound concentration range); Ki calculated from IC50, probe Kd and probe concentration; read-out: TR-FRET Binding Ki: BRD4 (BDI_K57-E168)
T2 construct: His-tagged first (BD1: amino acids K57-E168)
Outline: as §1

[13] = test system: HepG2; assay: Proliferation panel assay: HepG2; format: cell-based; settings: Homo sapiens, 120 h; HepG2 (Hepatocellular); 5 days, Cell Titer Glo; read-out: Cellular Proliferation EC50
[14] = test system: PC3M; assay: Proliferation panel assay: PC3M; format: cell-based; settings: Homo sapiens, PC-3M, 120 h; PC3M (Prostate); 5 days, Cell Titer Glo; read-out: Cellular Proliferation EC50
[15] = test system: Raji; assay: Proliferation panel assay: Raji; format: cell-based; settings: Homo sapiens, 120 h; Raji (Burkitt lymphoma); 5 days, Cell Titer Glo; read-out: Cellular Proliferation EC50
[16] = test system: MDAMB453; assay: Proliferation panel assay: MDAMB453; format: cell-based; settings: Homo sapiens, MDA-MB-453, 120 h; MDAMB453 (Breast); 5 days, Cell Titer Glo; read-out: Cellular Proliferation EC50
[17] = test system: H1975; assay: Proliferation panel assay: H1975; format: cell-based; settings: Homo sapiens, NCI-H1975, 120 h; H1975 (NSCLC); 5 days, Cell Titer Glo; read-out: Cellular Proliferation EC50
[18] = test system: SK-LMS-1; assay: Proliferation panel assay: SK-LMS-1; format: cell-based; settings: Homo sapiens, 120 h; SK-LMS-1 (Sarcoma); 5 days, Cell Titer Glo; read-out: Cellular Proliferation EC50
[19] = test system: GEO; assay: Proliferation panel assay: GEO; format: cell-based; settings: 120 h; GEO (Colon); 5 days, Cell Titer Glo; read-out: Cellular Proliferation EC50
[20] = test system: SKM1; assay: Proliferation panel assay: SKM1; format: cell-based; settings: Homo sapiens, SKM-1, 120 h; SKM1 (AML); 5 days, Cell Titer Glo; read-out: Cellular Proliferation EC50
[21] = test system: EJ-1; assay: Proliferation panel assay: EJ-1; format: cell-based; settings: EJ1, 120 h; EJ-1 (Bladder); 5 days, Cell Titer Glo; read-out: Cellular Proliferation EC50
[22] = test system: 786-0; assay: Proliferation panel assay: 786-0; format: cell-based; settings: Homo sapiens, 120 h; 786-0 (RCC); 5 days, Cell Titer Glo; read-out: Cellular Proliferation EC50

Cc1cc(-c2cc(NS(C)(=O)=O)ccc2Oc2ccccc2)c[nH]c1=O [Example 261, N-[3-(5-methyl-6-oxo-1,6-dihydropyridin-3-yl)-4-phenoxyphenyl]methanesulfonamide]
EC50 [1]: 230 nM | EC50 [2]: 740 nM | EC50 [3]: 620 nM | EC50 [4]: 55 nM | Ki [5]: 66.4 nM | EC50 [6]: 498 nM | EC50 [7]: 460 nM | EC50 [8]: 270 nM | EC50 [9]: 305 nM | EC50 [10]: 98 nM | EC50 [11]: 510 nM | Ki [12]: 25.9 nM | EC50 [13]: 510 nM | EC50 [14]: 1400 nM | EC50 [15]: 134 nM | EC50 [16]: 340 nM | EC50 [17]: 470 nM | EC50 [18]: 348 nM | EC50 [19]: 670 nM | EC50 [20]: 135 nM | EC50 [21]: 1160 nM | EC50 [22]: 250 nM

Cn1cc(-c2cc(NS(C)(=O)=O)ccc2Oc2ccccc2)ccc1=O [Example 224, N-[3-(1-methyl-6-oxo-1,6-dihydropyridin-3-yl)-4-phenoxyphenyl]methanesulfonamide]
EC50 [1]: 230 nM | EC50 [2]: 750 nM | EC50 [3]: 850 nM | EC50 [4]: 50 nM | Ki [5]: 113 nM | EC50 [6]: 430 nM | EC50 [7]: 720 nM | EC50 [8]: 280 nM | EC50 [9]: 279 nM | EC50 [10]: 109 nM | EC50 [11]: 520 nM | Ki [12]: 48.2 nM | EC50 [13]: 486 nM | EC50 [14]: 1450 nM | EC50 [15]: 129 nM | EC50 [16]: 320 nM | EC50 [17]: 380 nM | EC50 [18]: 448 nM | EC50 [19]: 550 nM | EC50 [20]: 116 nM | EC50 [21]: 1590 nM | EC50 [22]: 273 nM
